Measured values as given in paper PMC7897990, “TriTOX: A novel Trichomonas vaginalis assay platform for high-throughput screening of compound libraries” (International Journal for Parasitology: Drugs and Drug …, 2021).
Where two headings read alike, the source gives them in different places. Positions of bridges follow the written chain, without caps; N, C: chain ends. Non-standard residues stand in square brackets, D forms with d. Residues, ends and D or L forms follow the SMILES beside them. *: point of attachment. Ileψ(thiazoline)Cys = CC[C@H](C)[C@H](N)C1=N[C@H](C(=O)*)CS1; dOrn = NCCC[C@@H](N)C(=O)O

Assays:
[1] = system: nontumorigenic neonatal foreskin fibroblast (NFF) cell line
[2] = system: Trichomonas vaginalis G3 trophozoites
[3] = replicate 1, parasite screen at 1 µg/mL
[4] = replicate 2, parasite screen at 1 µg/mL
[5] = NFF_NS1 screen 5 µg/mL, single concentration
[6] = HTS single concentration, parasite screen 1 µg/mL, replicate 1
[7] = HTS single concentration, parasite screen 1 µg/mL, replicate 2
[8] = NFF_NS1 screen at 5 µg/mL, NFF cells
[9] = parasite screen at 1 µg/mL, replicate 1
[10] = parasite screen at 1 µg/mL, replicate 2
[11] = NFF fibroblast screen at 5 µg/mL, A = active, I = inactive
[12] = HTS, parasite screen at 1 µg/mL, replicate 1
[13] = HTS, parasite screen at 1 µg/mL, replicate 2

With C=C(C)C1CCC2(C)CCC3(C)C(CCC4C5(C)CCC(O)C(C)(C)C5CCC43C)C12 (centres unmarked) [BIA-L1759] the NFF_Activity ([1]; NFF cells, screen at 5 µg/mL) was “I (otherwise these were reported as inactive (I))”, the T.vaginalis_%inb_Rep1 [2, 3] was 12.73% and the T.vaginalis_%inb_Rep2 [2, 4] was 12.70%.

C=CC(C)(C)C12CC3C(=O)Nc4ccccc4C(=O)N3C1Nc1ccccc12 (centres unmarked) [BIA-A1686] was tested, and the NFF_Activity [1, 5] was “I (otherwise these were reported as inactive (I))”, the T.vaginalis_%inb_Rep1 [2, 6] was 14.16% and the T.vaginalis_%inb_Rep2 [2, 7] was 12.87%.

For CC(=O)N[C@H]1CCOC1=O [BIA-A1493], the NFF_Activity [1, 5] was “I (otherwise these were reported as inactive (I))”, the T.vaginalis_%inb_Rep1 [2, 6] was 15.89% and the T.vaginalis_%inb_Rep2 [2, 7] was 26.61%.

With CCCCCCCCCCC[C@@H](C[C@@H]1OC(=O)[C@H]1CCCCCC)OC(=O)[C@H](CC(C)C)NC=O [BIA-T1320] the NFF_Activity [1, 8] was “I (otherwise these were reported as inactive (I))”, the T.vaginalis_%inb_Rep1 [2, 9] was 10.91% and the T.vaginalis_%inb_Rep2 [2, 10] was 19.44%.

With C[C@@H](O)[C@H]1C(=O)N2C(C(=O)[O-])=C(SC3Cn4cnc[n+]4C3)[C@H](C)[C@H]12 (some centres unmarked) [BIA-B1663] the NFF_Activity [1, 5] was “I (otherwise these were reported as inactive (I))”, the T.vaginalis_%inb_Rep1 [2, 6] was 15.29% and the T.vaginalis_%inb_Rep2 [2, 7] was 20.32%.

With COC(=O)c1cccc2oc(-c3cccc4oc(-c5ccccc5O)nc34)nc12 [UK-1] the NFF_Activity [1, 11] was “I (otherwise these were reported as inactive (I))”, the T.vaginalis_%inb_Rep1 [2, 12] was 10.64% and the T.vaginalis_%inb_Rep2 [2, 13] was 15.36%.

In the case of CCCC[C@@H](C)[C@@H](OC(=O)C[C@@H](CC(=O)O)C(=O)O)[C@H](C[C@@H](C)CCCCCC[C@@H](O)C[C@H](O)[C@H](C)N)OC(=O)C[C@@H](CC(=O)O)C(=O)O [Fumonisin B2], the NFF_Activity ([1]; NFF_NS1 screen at 5 µg/mL) is reported as “I (otherwise these were reported as inactive (I))”, the T.vaginalis_%inb_Rep1 [2, 12] is reported as 14.71% and the T.vaginalis_Absorbance_Rep1 ([2]; HTS, parasite screen at 1 µg/mL, replicate 1, raw absorbance) is reported as 0.992. For the same compound, the T.vaginalis_%inb_Rep2 [2, 13] was 10.52% and the T.vaginalis_Absorbance_Rep2 ([2]; HTS, parasite screen at 1 µg/mL, replicate 2, raw absorbance) was 0.799.

For CN[C@@H]1C[C@H]2O[C@@](C)([C@@H]1OC)n1c3ccccc3c3c4c(c5c6ccccc6n2c5c31)C(=O)NC4 [BIA-S1086], the NFF_Activity [1, 8] was “A (active (A) compounds having >25% inhibitory activity)”, the T.vaginalis_%inb_Rep1 [2, 9] was 72.52% and the T.vaginalis_%inb_Rep2 [2, 10] was 83.24%.

In the case of Cc1c2ccocc-2oc1=O [BIA-K1791], the NFF_Activity ([1]; NFF cells, screen at 5 µg/mL) is reported as “I (otherwise these were reported as inactive (I))”, the T.vaginalis_%inb_Rep1 [2, 3] is reported as 12.47% and the T.vaginalis_%inb_Rep2 [2, 4] is reported as 13.47%.

With C[C@@H]1CC[C@H](O)/C=C/C(=O)O[C@H](C)CC[C@H](O)/C=C/C(=O)O1 [Pyrenophorol] the NFF_Activity ([1]; NFF fibroblasts, single concentration 5 µg/mL) was “I (otherwise these were reported as inactive (I))”, the T.vaginalis_%inb_Rep1 ([2]; HTS replicate 1, parasite screen 1 µg/mL) was 10.44% and the T.vaginalis_%inb_Rep2 ([2]; HTS replicate 2, parasite screen 1 µg/mL) was 11.15%.

In the case of CC[C@H](C)[C@H](N)C1=N[C@H](C(=O)N[C@@H](CC(C)C)C(=O)N[C@H](CCC(=O)O)C(=O)N[C@H](C(=O)N[C@H]2CCCCNC(=O)[C@H](CC(N)=O)NC(=O)[C@@H](CC(=O)O)NC(=O)[C@H](Cc3cnc[nH]3)NC(=O)[C@@H](Cc3ccccc3)NC(=O)[C@H]([C@@H](C)CC)NC(=O)[C@@H](CCCN)NC2=O)[C@@H](C)CC)CS1 [BIA-B1784] ({Ileψ(thiazoline)Cys}-L[dE]IK[dOrn]I[dF]H[dD]N; lactam 4-C), the NFF_Activity [1, 5] is reported as “I (otherwise these were reported as inactive (I))”, the T.vaginalis_%inb_Rep1 [2, 6] is reported as 15.89% and the T.vaginalis_%inb_Rep2 [2, 7] is reported as 9.69%.

For CCCCCCCCCCCCCCCc1cc(O)cc(O)c1 [BIA-A1689], the NFF_Activity [1, 5] was “I (otherwise these were reported as inactive (I))”, the T.vaginalis_%inb_Rep1 [2, 6] was 16.26% and the T.vaginalis_%inb_Rep2 [2, 7] was 11.86%.

COc1cc2c(c3oc(=O)c4c(c13)CCC4=O)[C@@H]1C=CO[C@@H]1O2 [BIA-A1232] was tested, and the NFF_Activity [1, 5] was “I (otherwise these were reported as inactive (I))”, the T.vaginalis_%inb_Rep1 [2, 6] was 12.06% and the T.vaginalis_%inb_Rep2 [2, 7] was 5.64%.

With CC1=CC2C(O)CCCC2C(C)(C(O)=C2C(=O)CNC2=O)C1CCC(C)C(O)/C(C)=C/CC(O)/C=C/C(C)C(O)/C=C/CC(O)/C=C/CC(O)CC1CCCN1C(=N)N (centres unmarked) [TPU-0037C] the NFF_Activity [1, 11] was “I (otherwise these were reported as inactive (I))”, the T.vaginalis_%inb_Rep1 [2, 12] was 9.28% and the T.vaginalis_%inb_Rep2 [2, 13] was 14.69%.

CO[C@H]1/C=C\C=C(/C)C(=O)NC2=CC(=O)C(NCCN(C)C)=C(C[C@@H](C)C[C@H](OC)[C@H](O)[C@@H](C)/C=C(\C)[C@@H]1OC(N)=O)C2=O [BIA-A1924] was tested, and the NFF_Activity [1, 5] was “A (active (A) compounds having >25% inhibitory activity)”, the T.vaginalis_%inb_Rep1 [2, 6] was 5.66% and the T.vaginalis_%inb_Rep2 [2, 7] was 62.10%.

For COc1cc(O)c2c(c1)C=CCC(O)C(O)C(=O)C=CCC(C)OC2=O (centres unmarked) [BIA-L1160], the NFF_Activity ([1]; NFF cells, screen at 5 µg/mL) was “I (otherwise these were reported as inactive (I))”, the T.vaginalis_%inb_Rep1 [2, 3] was 12.27% and the T.vaginalis_%inb_Rep2 [2, 4] was 12.76%.

For CCC(=O)CCCCCC1NC(=O)C2CCCCN2C(=O)C(C(C)CC)NC(=O)C(Cc2cn(OC)c3ccccc23)NC1=O (centres unmarked) [BIA-A1006], the NFF_Activity [1, 5] was “I (otherwise these were reported as inactive (I))”, the T.vaginalis_%inb_Rep1 [2, 6] was 13.25% and the T.vaginalis_%inb_Rep2 [2, 7] was 17.28%.
